The values that follow come from patent US8597904B2, “Pharmaceutical compositions for the treatment of conditions responsive to proteasome inhibition” (priority 2007, dated 2013).

The structures appear in SMILES notation. Read-outs that look alike come from different tables or passages of the source.

For assay [1], the system named is LAN-1 cells. Briefly: sulphorhodamine B (SRB) cell viability / proliferation assay. The format is cell-based, human. The text has this:
(§1) The mammalian cell lines used to test the effects of syringolin A were human neuroblastoma (NB) cells with either wild type p53 (line SK-N-SH, provided by the American Type Culture Collection [ATCC], Manassas, Va.; Davidoff, et al. 1992. Oncogene 7:127-133; McKenzie, et al. 1999. Clin. Cancer Res. 5:4199-4207; Tweddle, et al. 2001. Am. J. Pathol. 158:2067-2077), mutant p53 (line LAN-1, cysteine to stop codon at residue 182, provided by Dr. Robert Seeger, University of California, Los Angeles, Calif.; Davidoff, et al. 1992. Oncogene 7:127-133; Tweddle, et al. 2001. Cancer Res. 61:8-13; Tweddle, et al. 2003. Cancer Lett. 197:93-98), or human ovarian cancer cells (line SKOV3, provided by Dr. Bonnie Warn-Cramer, Cancer Research Center of Hawaii). NB cells were maintained in RPMI 1640 (Biosource, Rockville, Md.) containing 10% (v/v) heat-inactivated fetal bovine serum (FBS) (Invitrogen, Carlsbad, Calif.), penicillin (100 IU/ml), and streptomycin (100 μg/ml) as previously described (Wallick, et al. 2005. Oncogene 24:5606-5618). SKOV3 cells were maintained in McCoy's 5A with L-glutamine (Mediatech Inc., Herndon, Va.) and containing 10% (v/v) heat-inactivated fetal bovine serum […] (Invitrogen, Carlsbad, Calif.) and gentamicin ([…]). Cells were seeded 18-24 hours before GlbA or SylA treatment and analyzed after 24 and/or 48 hours. Cell numbers were determined using a haemacytometer in the presence of trypan blue (Fisher Scientific, Pittsburgh, Pa.).
(§2) To then test the effects of syringolin A on proliferation, cells at 0.25-0.5×10^5 cells per ml were seeded in 96-well microtiter plates containing 100 μl of culture medium per well. After 24 hours, syringolin A was added to wells to a final concentration of 0.5 μm to 100 μm. Syringolin was not added to parallel samples of control cells. Cells were incubated for 48 hours, photographed, and the viability of cells (calculated as a percentage of control cell counts) was determined using the sulphorhodamine B (SRB) assay as previously reported (Skehan, et al. 1990. J. Natl. Cancer Inst. 82:1107-1112, which is incorporated herein by reference in its entirety). In brief, cell culture medium was removed from the microtiter plate and adherent cells were fixed with 10% (w/v) trichloracetic acid (TCA) for 30 minutes at room temperature. Following four washes with tap water, 100 μl of SRB (Sigma Chemical Co., St. Louis, Mo.) (0.4 g/100 ml 1% [v/v] glacial acetic acid in water) was added and the plate was then incubated for 30 minutes at room temperature, and rinsed four times with 3% (v/v) glacial acetic acid. After addition of 200 μl of 10 mM […] (not pH adjusted) to each well, the plate was incubated on an orbital shaker for 30 minutes until the SRB was uniformly dissolved. The absorption at a wavelength of 560 nm was read using an HTS 7000 Plus Bioassay Reader or a Victor 3, 1420 Multilabel Counter (PerkinElmer, Inc. Boston, Mass.). To record cell morphology with and without syringolin treatment, photomicrographs were taken of cells in 12-well plates or 96-well plates, in the presence or absence of 25 μM syringolin A, using a Nikon Diaphot inverted microscope (Nikon Corp., Tokyo, Japan) and a Carl Zeiss Axiovert 200M inverted microscope (Carl Zeiss, Goettingen, Germany), both equipped with a digital camera and computer software for image processing. Power of magnification for SK-N-SH, LAN-1, and SKOV3 cells was 20×, and for Rat-1 cells was 10×.

In assay [2] the test system is SK-N-SH cells. The assay is described as above. The format is cell-based, human. The following applies: 48 hours.
From the text: as §1, §2

The target of assay [3] is T1, bovine pancreas trypsin (Bos taurus, UniProt P00760).
T1 construct: bovine pancreas trypsin (Pierce); purchased Pierce; host or cells: bovine pancreas
T1 sequence (P00760 24-246): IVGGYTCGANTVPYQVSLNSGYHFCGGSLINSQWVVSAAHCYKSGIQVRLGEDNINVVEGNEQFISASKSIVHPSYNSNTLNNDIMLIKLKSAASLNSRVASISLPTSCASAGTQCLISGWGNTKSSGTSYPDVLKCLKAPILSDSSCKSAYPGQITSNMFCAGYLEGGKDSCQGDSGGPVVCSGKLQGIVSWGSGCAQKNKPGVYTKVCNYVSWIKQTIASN
Briefly: SensoLyte Green Protease Fluorometric Assay, trypsin inhibition. It counts as biochemical. The note with it: syringolin A up to 500 μM. As to the method: (§3) To test the specificity of syringolin A inhibition of proteasome activities, bovine pancreas trypsin (Pierce) and Papaya latex papain (Sigma-Aldrich) inhibition assays with syringolin A were performed with the SensoLyte™ Green Protease Fluorometric Assay Kit (AnaSpec., San Jose, Calif., USA) according to the instructions of the manufacturer. Reaction volumes of 100 μl contained an enzyme concentration of 200 ng/ml and various amounts of test inhibitors. Protease activity was monitored at 33° C. in a FluoroCount Microplate Fluorometer (FluoroCount, Packard, Canberra, Australia) using 485 nm excitation and a 550 nm emission filters.

In assay [4] the target is T2, Papaya latex papain (Carica papaya, UniProt P00784).
T2 construct: Papaya latex papain (Sigma-Aldrich); purchased Sigma-Aldrich; host or cells: papaya latex
T2 sequence (P00784 134-345): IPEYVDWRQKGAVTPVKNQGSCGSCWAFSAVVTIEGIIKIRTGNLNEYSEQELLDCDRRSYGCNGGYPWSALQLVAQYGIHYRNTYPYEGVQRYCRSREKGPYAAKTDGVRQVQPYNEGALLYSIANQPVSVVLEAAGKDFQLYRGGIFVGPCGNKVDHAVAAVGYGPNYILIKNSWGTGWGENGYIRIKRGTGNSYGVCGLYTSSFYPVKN
Briefly: SensoLyte Green Protease Fluorometric Assay, papain inhibition. The format is biochemical. The following applies: syringolin A up to 500 μM. As to the method: as §3

The subject of assay [5] is SKOV3 cells. The note with it: values from previous studies with SylA (Coleman et al. 2006); cited from earlier work.
Assay [6] relates to NB and ovarian cancer cells. The following applies: Coleman et al. 2006, cited from earlier work.
The test system of assay [7] is SK-N-SH cells. Briefly: CellTiter 96 Aqueous One (MTS) cell proliferation assay. It counts as cell-based, human. As to the method:
(§4) The CellTiter 96 Aqueous One solution Cell Proliferation Assay (2-(4,5-dimethylthiazol-2-yl)-5-(3-carboxymethoxyphenyl)-2-(4-sulfophenyl)-2H-tetrazolium, inner salt; MTS) (Promega, San Luis Obispo, Calif.) was used to determine the viability of cells treated with GlbA and SylA. Briefly, SK-N-SH and SKOV3 cells were seeded in clear, 96 well plates, as described (Example 11), and cultured for 18-24 hours. Ten μl GlbA or SylA were added at different concentrations (0-100 μM) and incubated for 48 hours. After the experiment, 20 uL of tetrazolium CellTiter 96 Aqueous One Solution Reagent was added to wells, incubated for 75-150 min. at 37° C. The absorbance was measured at 490 nm using a Perkin Elmer HTS7000 Plus bioassay reader.

The test system of assay [8] is SKOV3 cells. The description is as above. The format is cell-based, human. On the procedure: as §4
Assay [9] relates to SK-N-SH cells. Briefly: microscopy of treated SK-N-SH cells for membrane blebbing. The format is cell-based, human.

With `CC(C)[C@H](NC(=O)N[C@H](C(=O)N[C@H]1/C=C/CCNC(=O)/C=C/[C@H](C(C)C)NC1=O)C(C)C)C(=O)O` [syringolin A], the IC50 in [1] (Homo sapiens, LAN1, LAN-1, 48 hours, SRB assay, read-out: IC50 (inhibitor concentration at which cell proliferation rate is reduced by 50% relative to control)) is 20 to 25 µM; in [2] (Homo sapiens, SRB assay, read-out: IC50 (inhibitor concentration at which cell proliferation rate is reduced by 50% relative to control)), 20 to 25 µM; in assay [6] (read-out: IC-50 (concentration at which the cell proliferation rate is reduced to 50%)), approximately 25 µM. In addition, the cell morphology entry was “induced significant morphological changes” in [1] (LAN-1, 25 μM, 48 hours); “induced significant morphological changes” in assay [2] (25 μM); “severe morphological changes” in [6] (NB cells, 25 μM, 48 hours). Besides, the cell viability result in assay [1] (LAN-1, 0.5 to 100 μm, 48 hours, dose-dependent) is on record as “reduced the cell viability”; in assay [2] (0.5 to 100 μm, dose-dependent), “reduced the cell viability”. Further, in assay [3], the trypsin activity result is recorded as “not affected”. Further, in [4], the papain activity result is on record as “not affected”. Besides, the EC50 in assay [5] is approximately 20 µM.
Turning to `CCCCCCC/C=C/C=C/C(=O)N[C@H](C(=O)N[C@H]1C[C@@H](O)CCNC(=O)/C=C/[C@H](C)NC1=O)[C@@H](C)O` [glidobactin A], the cell morphology result is given as “severe morphological changes” in assay [7] (48 hours) and “severe morphological changes” in assay [8] (SKOV3, 48 hours). The concentration giving a half-maximal response (EC50) in [7] (Homo sapiens, 48 hours, MTS) is approximately 0.14 µM; in assay [8] (Homo sapiens, SK-OV-3, 48 hours, MTS) it was approximately 0.8 µM. In addition, the “effectiveness of GlbA relative to SylA” value in assay [7] (ratio of EC50) was “about 143 fold”; in [8] (SKOV3, ratio of EC50) it was approximately 25 fold. In assay [9], the “membrane blebbing / apoptotic effects by microscopy” value is “presence of membrane blebbing”.

In general, EC50 refers to the concentration giving half of the maximal effect.
